Experimental data reported in patent US10227344B2, “CK2 inhibitors, compositions and methods thereof” (Polaris Pharmaceuticals, Inc., priority 2016, dated 2019).

Tests used:
Type in all cases: cell-based
T47D = experiment: Cancer cell panel, cell viability (resazurin): Breast, T47D; details: 72 hours, labelled drug combined with Example 3
DLD-1 = experiment: Cancer cell panel, cell viability (resazurin): Colon, DLD-1; details: DLD-1 (Colon), 72 hours; labelled drug combined with Example 3
SK-MEL-24 = experiment: Cancer cell panel, cell viability (resazurin): Melanoma, SK-MEL-24; details: SK-MEL-24 (Melanoma), 72 hours; labelled drug combined with Example 3
BT-474 = experiment: Cancer cell panel, cell viability (resazurin): Breast, BT-474; details: BT-474 (Breast), 72 hours; labelled drug combined with Example 3
Colo205 = experiment: Cancer cell panel, cell viability (resazurin): Colon, Colo205; details: 72 hours, labelled drug combined with Example 3
BxPC3 = experiment: Cancer cell panel, cell viability (resazurin): Pancreatic, BxPC3; details: 72 hours, labelled drug combined with Example 3
U87MG = experiment: Cancer cell panel, cell viability (resazurin): Glioblastoma, U87MG; details: 72 hours, labelled drug combined with Example 3
Procedure: (§1) Cells were plated in 96-well plates and treated for 72 hours with a serially diluted CK2 inhibitor or anti-cancer drug or their combination. The suspension cell lines were treated right after plating, while the adherent cells were allowed to attach overnight prior to the start of the treatment.
(§2) Cell viability was determined by adding resazurin to cell cultures and measuring fluorescence with a plate reader. Relative cell viability was calculated by dividing the cell viability signal from a test sample by that of a non-treated control. […] Bliss Independence and Highest Single Agent models were used to determine if there is synergy, additivity or antagonism between the CK2 inhibitor and an anti-cancer drug.

H23 = experiment: Cancer cell panel, cell viability (resazurin): NSCLC, H23; details: 72 hours, labelled drug combined with Example 3
BT-20 = experiment: Cancer cell panel, cell viability (resazurin): Breast, BT-20; details: BT-20 (Breast), 72 hours; labelled drug combined with Example 3
Procedure: as §1, §2

ACHN = experiment: Cancer cell panel, cell viability (resazurin): Renal, ACHN; details: 72 hours, labelled drug combined with Example 3
Caki-1 = experiment: Cancer cell panel, cell viability (resazurin): Renal, Caki-1; details: Caki-1 (Renal), 72 hours; labelled drug combined with Example 3
Procedure: as §1, §2

A2780 = experiment: Cancer cell panel, cell viability (resazurin): Ovarian, A2780; details: 72 hours, labelled drug combined with Example 3
Procedure: as §1, §2

WM-115 = experiment: Cancer cell panel, cell viability (resazurin): Melanoma, WM-115; details: WM-115 (Melanoma), 72 hours; labelled drug combined with Example 3
Procedure: as §1, §2

MDA-MB-231 = experiment: Cancer cell panel, cell viability (resazurin): Breast, MDA-MB-231; details: MDA-MB-231 (Breast), 72 hours; labelled drug combined with Example 3
Panc-1 = experiment: Cancer cell panel, cell viability (resazurin): Pancreatic, Panc-1; details: Panc-1 (Pancreatic), 72 hours; labelled drug combined with Example 3
Procedure: as §1, §2

H1975 = experiment: Cancer cell panel, cell viability (resazurin): NSCLC, H1975; details: 72 hours, labelled drug combined with Example 3
NAMALWA = experiment: Cancer cell panel, cell viability (resazurin): Burkitt's Lymphoma, NAMALWA; details: 72 hours, labelled drug combined with Example 3
Procedure: as §1, §2

EOL-1 = experiment: Cancer cell panel, cell viability (resazurin): Leukemia, EOL-1; details: EOL-1 (Leukemia), 72 hours; labelled drug combined with Example 3
HL60 = experiment: Cancer cell panel, cell viability (resazurin): Leukemia, HL60; details: 72 hours, labelled drug combined with Example 3
H460 = experiment: Cancer cell panel, cell viability (resazurin): NSCLC, H460; details: 72 hours, labelled drug combined with Example 3
OVCAR-3 = experiment: Cancer cell panel, cell viability (resazurin): Ovarian, OVCAR-3; details: OVCAR-3 (Ovarian), 72 hours; labelled drug combined with Example 3
U266 = experiment: Cancer cell panel, cell viability (resazurin): multiple myeloma, U266; details: 72 hours, labelled drug combined with Example 3
786-O = experiment: Cancer cell panel, cell viability (resazurin): Renal, 786-O; details: 786-O (Renal), 72 hours; labelled drug combined with Example 3
Procedure: as §1, §2

SKOV-3 = experiment: Cancer cell panel, cell viability (resazurin): Ovarian, SKOV-3; details: SKOV-3 (Ovarian), 72 hours; labelled drug combined with Example 3
Procedure: as §1, §2

LoVo = experiment: Cancer cell panel, cell viability (resazurin): Colon, LoVo; details: 72 hours, labelled drug combined with Example 3
Caov-3 = experiment: Cancer cell panel, cell viability (resazurin): Ovarian, Caov-3; details: Caov-3 (Ovarian), 72 hours; labelled drug combined with Example 3
PC3 = experiment: Cancer cell panel, cell viability (resazurin): Prostate, PC3; details: 72 hours, labelled drug combined with Example 3
MDA-MB-453 = experiment: Cancer cell panel, cell viability (resazurin): Breast, MDA-MB-453; details: MDA-MB-453 (Breast), 72 hours; labelled drug combined with Example 3
A375 = experiment: Cancer cell panel, cell viability (resazurin): Melanoma, A375; details: 72 hours, labelled drug combined with Example 3
Procedure: as §1, §2

K562 = experiment: Cancer cell panel, cell viability (resazurin): Leukemia, K562; details: 72 hours, labelled drug combined with Example 3
ZR-75-1 = experiment: Cancer cell panel, cell viability (resazurin): Breast, ZR-75-1; details: ZR-75-1 (Breast), 72 hours; labelled drug combined with Example 3
H1299 = experiment: Cancer cell panel, cell viability (resazurin): NSCLC, H1299; details: 72 hours, labelled drug combined with Example 3
MOLT4 = experiment: Cancer cell panel, cell viability (resazurin): Leukemia, MOLT4; details: 72 hours, labelled drug combined with Example 3
Procedure: as §1, §2

SK-MEL-3 = experiment: Cancer cell panel, cell viability (resazurin): Melanoma, SK-MEL-3; details: SK-MEL-3 (Melanoma), 72 hours; labelled drug combined with Example 3
Procedure: as §1, §2

RPMI8226 = experiment: Cancer cell panel, cell viability (resazurin): multiple myeloma, RPMI8226; details: 72 hours, labelled drug combined with Example 3
H2122 = experiment: Cancer cell panel, cell viability (resazurin): NSCLC, H2122; details: 72 hours, labelled drug combined with Example 3
HT29 = experiment: Cancer cell panel, cell viability (resazurin): Colon, HT29; details: 72 hours, labelled drug combined with Example 3
SkBr-3 = experiment: Cancer cell panel, cell viability (resazurin): Breast, SkBr-3; details: SkBr-3 (Breast), 72 hours; labelled drug combined with Example 3
Daudi = experiment: Cancer cell panel, cell viability (resazurin): Burkitt's Lymphoma, Daudi; details: 72 hours, labelled drug combined with Example 3

C#Cc1cccc(Nc2ncnc3cc(OCCOC)c(OCCOC)cc23)c1 [Erlotinib, erlotinib]
synergy, additivity or antagonism of the combination of Example 3 with the anti-cancer drug (T47D): + (Additive relative to each agent alone (CI = 0.9-1 by Bliss Independence Model and <0.9 by Highest Single Agent Model))
synergy, additivity or antagonism of the combination of Example 3 with the anti-cancer drug (DLD-1): + + + (Synergy relative to each agent alone (CI = 0.4-0.74 by Bliss Independence Model))
synergy, additivity or antagonism of the combination of Example 3 with the anti-cancer drug (SK-MEL-24): + (Additive relative to each agent alone (CI = 0.9-1 by Bliss Independence Model and <0.9 by Highest Single Agent Model))
synergy, additivity or antagonism of the combination of Example 3 with the anti-cancer drug (BT-474): + + (Slight synergy relative to each agent alone (CI = 0.75-0.9 by Bliss Independence Model))
synergy, additivity or antagonism of the combination of Example 3 with the anti-cancer drug (Colo205): + + + (Synergy relative to each agent alone (CI = 0.4-0.74 by Bliss Independence Model))
synergy, additivity or antagonism of the combination of Example 3 with the anti-cancer drug (BxPC3): + + + + (Strong synergy relative to each agent alone (CI < 0.4 by Bliss Independence Model))
synergy, additivity or antagonism of the combination of Example 3 with the anti-cancer drug (U87MG): + (Additive relative to each agent alone (CI = 0.9-1 by Bliss Independence Model and <0.9 by Highest Single Agent Model))
synergy, additivity or antagonism of the combination of Example 3 with the anti-cancer drug (H23): + + + (Synergy relative to each agent alone (CI = 0.4-0.74 by Bliss Independence Model))
synergy, additivity or antagonism of the combination of Example 3 with the anti-cancer drug (BT-20): + + + (Synergy relative to each agent alone (CI = 0.4-0.74 by Bliss Independence Model))
synergy, additivity or antagonism of the combination of Example 3 with the anti-cancer drug (ACHN): + (Additive relative to each agent alone (CI = 0.9-1 by Bliss Independence Model and <0.9 by Highest Single Agent Model))
synergy, additivity or antagonism of the combination of Example 3 with the anti-cancer drug (Caki-1): + (Additive relative to each agent alone (CI = 0.9-1 by Bliss Independence Model and <0.9 by Highest Single Agent Model))
synergy, additivity or antagonism of the combination of Example 3 with the anti-cancer drug (A2780): + + (Slight synergy relative to each agent alone (CI = 0.75-0.9 by Bliss Independence Model))
synergy, additivity or antagonism of the combination of Example 3 with the anti-cancer drug (WM-115): + (Additive relative to each agent alone (CI = 0.9-1 by Bliss Independence Model and <0.9 by Highest Single Agent Model))
synergy, additivity or antagonism of the combination of Example 3 with the anti-cancer drug (MDA-MB-231): + + (Slight synergy relative to each agent alone (CI = 0.75-0.9 by Bliss Independence Model))
synergy, additivity or antagonism of the combination of Example 3 with the anti-cancer drug (Panc-1): + (Additive relative to each agent alone (CI = 0.9-1 by Bliss Independence Model and <0.9 by Highest Single Agent Model))
synergy, additivity or antagonism of the combination of Example 3 with the anti-cancer drug (H1975): + + (Slight synergy relative to each agent alone (CI = 0.75-0.9 by Bliss Independence Model))
synergy, additivity or antagonism of the combination of Example 3 with the anti-cancer drug (NAMALWA): + (Additive relative to each agent alone (CI = 0.9-1 by Bliss Independence Model and <0.9 by Highest Single Agent Model))
synergy, additivity or antagonism of the combination of Example 3 with the anti-cancer drug (EOL-1): + (Additive relative to each agent alone (CI = 0.9-1 by Bliss Independence Model and <0.9 by Highest Single Agent Model))
synergy, additivity or antagonism of the combination of Example 3 with the anti-cancer drug (HL60): + + (Slight synergy relative to each agent alone (CI = 0.75-0.9 by Bliss Independence Model))
synergy, additivity or antagonism of the combination of Example 3 with the anti-cancer drug (H460): + + + + (Strong synergy relative to each agent alone (CI < 0.4 by Bliss Independence Model))
synergy, additivity or antagonism of the combination of Example 3 with the anti-cancer drug (OVCAR-3): + (Additive relative to each agent alone (CI = 0.9-1 by Bliss Independence Model and <0.9 by Highest Single Agent Model))
synergy, additivity or antagonism of the combination of Example 3 with the anti-cancer drug (U266): + (Additive relative to each agent alone (CI = 0.9-1 by Bliss Independence Model and <0.9 by Highest Single Agent Model))
synergy, additivity or antagonism of the combination of Example 3 with the anti-cancer drug (786-O): + + (Slight synergy relative to each agent alone (CI = 0.75-0.9 by Bliss Independence Model))
synergy, additivity or antagonism of the combination of Example 3 with the anti-cancer drug (SKOV-3): + + + (Synergy relative to each agent alone (CI = 0.4-0.74 by Bliss Independence Model))
synergy, additivity or antagonism of the combination of Example 3 with the anti-cancer drug (LoVo): + (Additive relative to each agent alone (CI = 0.9-1 by Bliss Independence Model and <0.9 by Highest Single Agent Model))
synergy, additivity or antagonism of the combination of Example 3 with the anti-cancer drug (Caov-3): + + (Slight synergy relative to each agent alone (CI = 0.75-0.9 by Bliss Independence Model))
synergy, additivity or antagonism of the combination of Example 3 with the anti-cancer drug (PC3): − (Slightly antagonistic relative to each agent alone (CI = 1.1-1.2 by Highest Single Agent Model))
synergy, additivity or antagonism of the combination of Example 3 with the anti-cancer drug (MDA-MB-453): + + (Slight synergy relative to each agent alone (CI = 0.75-0.9 by Bliss Independence Model))
synergy, additivity or antagonism of the combination of Example 3 with the anti-cancer drug (A375): + + (Slight synergy relative to each agent alone (CI = 0.75-0.9 by Bliss Independence Model))
synergy, additivity or antagonism of the combination of Example 3 with the anti-cancer drug (K562): + + + (Synergy relative to each agent alone (CI = 0.4-0.74 by Bliss Independence Model))
synergy, additivity or antagonism of the combination of Example 3 with the anti-cancer drug (ZR-75-1): + (Additive relative to each agent alone (CI = 0.9-1 by Bliss Independence Model and <0.9 by Highest Single Agent Model))
synergy, additivity or antagonism of the combination of Example 3 with the anti-cancer drug (H1299): + (Additive relative to each agent alone (CI = 0.9-1 by Bliss Independence Model and <0.9 by Highest Single Agent Model))
synergy, additivity or antagonism of the combination of Example 3 with the anti-cancer drug (MOLT4): + + (Slight synergy relative to each agent alone (CI = 0.75-0.9 by Bliss Independence Model))
synergy, additivity or antagonism of the combination of Example 3 with the anti-cancer drug (SK-MEL-3): + (Additive relative to each agent alone (CI = 0.9-1 by Bliss Independence Model and <0.9 by Highest Single Agent Model))
synergy, additivity or antagonism of the combination of Example 3 with the anti-cancer drug (RPMI8226): + + + (Synergy relative to each agent alone (CI = 0.4-0.74 by Bliss Independence Model))
synergy, additivity or antagonism of the combination of Example 3 with the anti-cancer drug (H2122): + + + + (Strong synergy relative to each agent alone (CI < 0.4 by Bliss Independence Model))
synergy, additivity or antagonism of the combination of Example 3 with the anti-cancer drug (HT29): + + (Slight synergy relative to each agent alone (CI = 0.75-0.9 by Bliss Independence Model))
synergy, additivity or antagonism of the combination of Example 3 with the anti-cancer drug (SkBr-3): + + (Slight synergy relative to each agent alone (CI = 0.75-0.9 by Bliss Independence Model))
synergy, additivity or antagonism of the combination of Example 3 with the anti-cancer drug (Daudi): + + (Slight synergy relative to each agent alone (CI = 0.75-0.9 by Bliss Independence Model))
